One data set deals with cGMP-specific 3',5'-cyclic phosphodiesterase (Homo sapiens, UniProt O76074).
Regarding `CCN1C(=O)C2C(N=CN2Cc2ccc(O)c(Br)c2)N2C1=N[C@@H]1CCC[C@@H]12` (some centres undefined), the IC50 is 6.31 nM. Same read-out and setting: the value for `CCN1C(=O)C2C(N=C(OC)N2Cc2ccc(OC)c(Cl)c2)N2C[C@@H](Cc3ccccc3)N=C12` (some centres undefined) was 1.58 nM.

System in the next data set: not listed separately
In words: Octanol-water partition coefficient, log P of the compound. In kind it is physicochemical.
Regarding `CCN1C(=O)c2c(nc(C(N)=O)n2Cc2ccc(OC)cc2)N2C1=N[C@@H]1CCC[C@@H]12`, the logP came to 2.47. Turning to `CCN1C(=O)c2c(nc(C(N)=O)n2Cc2ccc(OC)c(Cl)c2)N2C[C@@H](Cc3ccccc3)N=C12`, the logP was 4.32. The same measure, in the same setting: the value for `CCOc1nc2c(n1Cc1ccc(OC)cc1)C(=O)N(CC)C1=N[C@@H]3CCC[C@@H]3N12` was 4.1; that for `CCN1C(=O)c2c(nc(C(=O)NC)n2Cc2ccc(OC)c(Cl)c2)N2C1=N[C@@H]1CCC[C@@H]12` was 3.26. Compound `CCSc1nc2c(n1Cc1ccc(OC)cc1)C(=O)N(CC)C1=N[C@@H]3CCC[C@@H]3N12` yielded a logP of 4.67. Same read-out and setting: the value for `CCOc1nc2c(n1Cc1ccc(OC)c(Br)c1)C(=O)N(CC)C1=N[C@@H]3CCC[C@@H]3N12` was 4.93. In turn, `CCN1C(=O)c2c(nc(C#N)n2Cc2ccc(OC)cc2)N2C1=N[C@@H]1CCC[C@@H]12` yielded a logP of 3.59.

The compound `CCN1C(=O)c2c(nc(OCc3ccccc3)n2Cc2ccc(O)c(Cl)c2)N2C[C@@H](Cc3ccccc3)N=C12` showed a logP of 7.09. In turn, `CCN1C(=O)c2c(nc(C(N)=O)n2Cc2ccc(O)c(Br)c2)N2C1=N[C@@H]1CCC[C@@H]12` had a logP of 3.03. For the compound `CCN1C(=O)c2c(nc(OC)n2Cc2ccc(O)c(Br)c2)N2C1=N[C@@H]1CCC[C@@H]12`, the logP came to 4.33.

Compound `CCN1C(=O)c2c(nc(C(N)=O)n2Cc2ccc(O)c(Cl)c2)N2C[C@@H](Cc3ccccc3)N=C12` showed a logP of 4.06. For the compound `CCN1C(=O)c2c(nc(OC)n2Cc2ccc(OC)c(Br)c2)N2C[C@@H](Cc3ccccc3)N=C12`, the logP was determined as 5.89. Same read-out and setting: as for `CCN1C(=O)c2c(nc(OC)n2Cc2ccc(O)c(Br)c2)N2C[C@@H](Cc3ccccc3)N=C12`, the figure is 5.63. Regarding `CCN1C(=O)c2c(nc(OC)n2Cc2ccc(OC)c(C#N)c2)N2C[C@@H](Cc3ccccc3)N=C12`, the logP amounted to 5.1. Take `CCN1C(=O)c2c(nc(C#Cc3ccccc3)n2Cc2ccc(Cl)cc2)N2C1=N[C@@H]1CCC[C@@H]12`: the logP was 6.19. In turn, `CCOc1nc2c(n1Cc1ccc(OC)c(Cl)c1)C(=O)N(CC)C1=N[C@@H]3CCC[C@@H]3N12` returned a logP of 4.66. On the same count and under the same terms, the value for `CCN1C(=O)c2c(nc(C#Cc3ccccc3)n2Cc2ccc(O)cc2)N2C1=N[C@@H]1CCC[C@@H]12` was 5.24; that for `CCN1C(=O)c2c(nc(OC)n2Cc2ccc(O)c(Cl)c2)N2C1=N[C@@H]1CCC[C@@H]12` was 4.06; that for `CCN1C(=O)c2c(nc(C(=O)NC)n2Cc2ccc(O)c(Cl)c2)N2C1=N[C@@H]1CCC[C@@H]12` was 3. Still for that read-out and setting: as for `CCN1C(=O)c2c(nc(C#Cc3ccccc3)n2Cc2ccc(OC)cc2)N2C1=N[C@@H]1CCC[C@@H]12`, the figure is 5.5; as for `CCN1C(=O)c2c(nc(OC)n2Cc2ccc(OC)c(Br)c2)N2C1=N[C@@H]1CCC[C@@H]12`, 4.59; as for `CCN1C(=O)c2c(nc(Cc3ccccc3)n2Cc2ccc(Cl)cc2)N2C1=N[C@@H]1CCC[C@@H]12`, 6.03.

On to `CCN1C(=O)c2c(ncn2Cc2ccc(OC)c(Cl)c2)N2C1=N[C@@H]1CCC[C@@H]12`, for which the logP was determined as 3.47. The compound `CCN1C(=O)c2c(nc(C(N)=O)n2Cc2ccc(O)c(Cl)c2)N2C1=N[C@@H]1CCC[C@@H]12` came in with a logP of 2.76. On to `CCN1C(=O)c2c(nc(Cc3ccccc3)n2Cc2ccc(OC)c(Cl)c2)N2C1=N[C@@H]1CCC[C@@H]12`, for which the logP came out at 5.9. Take `CCN1C(=O)c2c(nc(Cc3ccccc3)n2Cc2ccc3c(c2)OCO3)N2C1=N[C@@H]1CCC[C@@H]12`: the logP is 5.25. `CCSc1nc2c(n1Cc1ccc(O)cc1)C(=O)N(CC)C1=N[C@@H]3CCC[C@@H]3N12` had a logP of 4.41. As for `CCN1C(=O)c2c(nc(C(N)=O)n2Cc2ccc(O)cc2)N2C1=N[C@@H]1CCC[C@@H]12`, the logP came to 2.2. In turn, `CCN1C(=O)c2c(ncn2Cc2ccc(OC)c(Br)c2)N2C1=N[C@@H]1CCC[C@@H]12` came in with a logP of 3.74. Consider `CCN1C(=O)c2c(nc(Cc3ccccc3)n2Cc2ccccc2)N2C1=N[C@@H]1CCC[C@@H]12`, for which the logP came to 5.47.

Compound `CCN1C(=O)c2c(nc(OC)n2Cc2ccc(O)c(Cl)c2)N2C[C@@H](Cc3ccccc3)N=C12` displayed a logP of 5.36. Turning to `CCN1C(=O)c2c(nc(C(F)(F)F)n2Cc2ccc(O)cc2)N2C1=N[C@@H]1CCC[C@@H]12`, the logP was determined as 4.22. With `CCN1C(=O)c2c(nc(C(=O)OC)n2Cc2ccc(OC)cc2)N2C1=N[C@@H]1CCC[C@@H]12`, the logP turned out to be 3.38. `CCN1C(=O)c2c(nc(OC)n2Cc2ccc(OC)c(Cl)c2)N2C1=N[C@@H]1CCC[C@@H]12` had a logP of 4.32.

For `CCN1C(=O)c2c(nc(Cc3ccccc3)n2Cc2ccc(C)cc2)N2C1=N[C@@H]1CCC[C@@H]12`, the logP worked out at 5.95. Compound `CCN1C(=O)c2c(nc(C(N)=O)n2Cc2ccc(OC)c(Br)c2)N2C1=N[C@@H]1CCC[C@@H]12` yielded a logP of 3.3. As to `CCOc1nc2c(n1Cc1ccc(O)c(Cl)c1)C(=O)N(CC)C1=N[C@@H]3CCC[C@@H]3N12`, the logP was determined as 4.4.

Usually IC50 stands for the concentration needed to halve the response being measured. High values mean weaker potency in that assay, low ones greater potency in that assay. By logP is commonly meant the decadic logarithm of the partition coefficient of the neutral form, usually between octanol and water. Low values mean lower lipophilicity, high ones higher lipophilicity.
